Columns and labels:
ΔF508-CFTR [1] = biological target: T1, ΔF508-CFTR (Homo sapiens, UniProt P13569, DEL508-508); test: CFTR cell surface levels using HRP-tagged ΔF508-CFTR expressing CFBE cells, intrinsic corrector capacity; format: cell-based
T1 construct: host or cells: CFBE41o-, doxycycline-inducible
Procedure, shortened: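 Here the cells express ΔF508-CFTR with horseradish peroxidase inserted in extracellular loop 4, so only rescued channel at the surface gives luminescent signal. Compounds act on their own, 20 h at the reduced temperature of 33 °C; values are percent activity relative to DMSO and a 3 μM corrector.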

ΔF508-CFTR [2] = biological target: T1, ΔF508-CFTR; test: CFTR cell surface levels using HRP-tagged ΔF508-CFTR expressing CFBE cells, in the presence of a co-corrector; format: cell-based
Procedure, shortened: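 Cells were seeded with 0.5 μg/mL doxycycline and held 68 h at 37 °C. Test compounds plus 3 μM co-corrector (final 0.1% DMSO) were then added for 20 h at 33 °C. Washed cells received HRP substrate, and luminescence was normalized between DMSO and 3 μM co-corrector controls.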

[3] = HRP-tagged ΔF508-CFTR CFBE41o- cells, compounds alone (intrinsic corrector capacity), 20 hours at 33° C., positive control 3 μM corrector
[4] = HRP-tagged ΔF508-CFTR CFBE41o- cells, compounds alone (intrinsic corrector capacity), 20 hours at 33° C., read-out: EC50
[5] = HRP-tagged ΔF508-CFTR expressing CFBE cells, in the presence of 3 μM co-corrector
[6] = HRP-tagged ΔF508-CFTR expressing CFBE cells, in the presence of 3 μM co-corrector, read-out: EC50
[7] = HRP-tagged ΔF508-CFTR expressing CFBE cells, intrinsic corrector capacity (no co-corrector), 33° C., 20 hours
[8] = HRP-tagged ΔF508-CFTR expressing CFBE cells, intrinsic corrector capacity (no co-corrector), 33° C., 20 hours, read-out: EC50

T1 sequence (P13569 with tags, fused parts or gaps DEL508-508): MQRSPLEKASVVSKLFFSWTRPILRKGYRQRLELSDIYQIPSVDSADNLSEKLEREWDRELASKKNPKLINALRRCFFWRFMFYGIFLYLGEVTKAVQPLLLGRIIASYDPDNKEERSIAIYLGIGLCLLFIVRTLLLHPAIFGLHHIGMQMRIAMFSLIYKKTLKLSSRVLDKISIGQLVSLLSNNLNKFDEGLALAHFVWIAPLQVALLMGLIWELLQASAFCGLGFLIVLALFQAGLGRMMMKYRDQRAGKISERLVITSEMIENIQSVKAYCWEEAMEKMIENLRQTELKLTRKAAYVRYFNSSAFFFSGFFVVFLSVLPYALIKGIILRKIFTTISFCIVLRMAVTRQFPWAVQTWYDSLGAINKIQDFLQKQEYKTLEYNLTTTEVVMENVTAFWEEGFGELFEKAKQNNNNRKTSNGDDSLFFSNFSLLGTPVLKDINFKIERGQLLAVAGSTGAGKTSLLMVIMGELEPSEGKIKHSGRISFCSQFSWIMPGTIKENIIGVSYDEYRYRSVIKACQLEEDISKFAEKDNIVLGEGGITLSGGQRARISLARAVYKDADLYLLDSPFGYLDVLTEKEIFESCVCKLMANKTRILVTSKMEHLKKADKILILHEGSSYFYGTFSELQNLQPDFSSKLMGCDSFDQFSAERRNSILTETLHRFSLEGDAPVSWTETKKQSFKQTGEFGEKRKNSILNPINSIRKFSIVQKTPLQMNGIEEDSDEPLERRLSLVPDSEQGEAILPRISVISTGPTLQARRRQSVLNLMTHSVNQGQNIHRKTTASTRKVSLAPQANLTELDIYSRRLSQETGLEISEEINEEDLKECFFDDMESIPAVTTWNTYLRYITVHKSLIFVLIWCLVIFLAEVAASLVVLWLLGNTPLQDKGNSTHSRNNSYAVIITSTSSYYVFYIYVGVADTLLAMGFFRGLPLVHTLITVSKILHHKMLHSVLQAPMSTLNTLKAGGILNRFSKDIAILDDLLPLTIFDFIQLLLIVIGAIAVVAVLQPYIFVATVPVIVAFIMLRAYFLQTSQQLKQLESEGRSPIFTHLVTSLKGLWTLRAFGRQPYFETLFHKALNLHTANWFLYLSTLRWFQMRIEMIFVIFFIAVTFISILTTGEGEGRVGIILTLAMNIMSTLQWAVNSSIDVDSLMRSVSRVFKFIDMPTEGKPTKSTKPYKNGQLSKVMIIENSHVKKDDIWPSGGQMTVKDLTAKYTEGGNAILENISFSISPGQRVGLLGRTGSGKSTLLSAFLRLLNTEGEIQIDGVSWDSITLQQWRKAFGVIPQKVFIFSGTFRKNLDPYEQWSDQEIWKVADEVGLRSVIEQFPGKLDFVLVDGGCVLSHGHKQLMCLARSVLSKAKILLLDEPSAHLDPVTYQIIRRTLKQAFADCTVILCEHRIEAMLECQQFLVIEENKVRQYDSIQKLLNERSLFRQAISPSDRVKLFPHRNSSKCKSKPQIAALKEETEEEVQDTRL

Compound | % Activation (ΔF508-CFTR [1]; [3]) | EC50 (ΔF508-CFTR [1]; [4]) | % Activation (ΔF508-CFTR [2]; [5]) | EC50 (ΔF508-CFTR [2]; [6]) | EC50 (ΔF508-CFTR [1]) | % Activation (ΔF508-CFTR [1]; [7]) | EC50 (ΔF508-CFTR [2]) | EC50 (ΔF508-CFTR [1]; [8])
CC(C)c1nn([C@@H]2CCC[C@@H](O)C2)c2nc(C(=O)O)cc(-c3ccc(N4CCOCC4)cc3)c12 (racemic) [compound 194, rac-1-[(1R,3R)-3-hydroxycyclohexyl]-4-[4-(morpholin-4-yl)phenyl]-3-(propan-2-yl)-1H-pyrazolo[3,4-b]pyridine-6-carboxylic acid] | 86.36% | 1710 nM | 233.9% | 1250 nM | – | – | – | –
CC(C)c1nn([C@@H]2CCC[C@H](O)C2)c2nc(C(=O)O)cc(-c3ccc(N4CCOCC4)cc3)c12 (racemic) [compound 195, rac-1-[(1R,3S)-3-hydroxycyclohexyl]-4-[4-(morpholin-4-yl)phenyl]-3-(propan-2-yl)-1H-pyrazolo[3,4-b]pyridine-6-carboxylic acid] | 27.46% | > 10000 nM | 174.9% | 3340 nM | – | – | – | –
CC(C)(C)OC(=O)N1CC[C@@H]2CN(c3cc(C(=O)O)nc4c3c(C3CCC3)nn4-c3ccccc3)CC[C@@H]21 (racemic) [compound 549, rac-4-[(3aR,7aS)-1-(tert-butoxycarbonyl)octahydro-5H-pyrrolo[3,2-c]pyridin-5-yl]-3-cyclobutyl-1-phenyl-1H-pyrazolo[3,4-b]pyridine-6-carboxylic acid] | – | – | 467.2% | – | 211 nM | 302.2% | 61.7 nM | –
CC(=O)N1CC[C@@H]2CN(c3cc(C(=O)O)nc4c3c(C3CCC3)nn4-c3ccccc3)CC[C@@H]21 (single isomer, unassigned) [compound 587] | – | – | 360.33% | 2420 nM | – | 149.5% | – | 3330 nM
CC(=O)N1CC[C@H]2CN(c3cc(C(=O)O)nc4c3c(C3CCC3)nn4-c3ccccc3)CC[C@H]21 (single isomer, unassigned) [compound 588] | – | – | 469.3% | 2420 nM | – | 232.6% | – | 3330 nM
COc1ccc(-c2cc(C(=O)O)nc3c2c(C)nn3C2CCCCC2)cc1 [compound 2, 1-cyclohexyl-4-(4-methoxyphenyl)-3-methyl-1H-pyrazolo[3,4-b]pyridine-6-carboxylic acid] | 49.03% | 2650 nM | 198.6% | 2970 nM | – | – | – | –
Cc1cccc(-n2nc(C)c3c(-c4ccc(N5CCOCC5)cc4)cc(C(=O)O)nc32)c1 [compound 13, 3-methyl-1-(3-methylphenyl)-4-[4-(morpholin-4-yl)phenyl]-1H-pyrazolo[3,4-b]pyridine-6-carboxylic acid] | 159.23% | 997 nM | 363.7% | 723 nM | – | – | – | –
Cc1nn(-c2ccccc2)c2nc(C(=O)O)cc(-c3cnc(N4CCOCC4)nc3)c12 [compound 15, 3-methyl-4-[2-(morpholin-4-yl)pyrimidin-5-yl]-1-phenyl-1H-pyrazolo[3,4-b]pyridine-6-carboxylic acid] | 98.68% | 2670 nM | 282.5% | 2600 nM | – | – | – | –
Cc1cccc(-n2nc(C(C)C)c3c(-c4ccc(N5CCOCC5)cc4)cc(C(=O)O)nc32)c1 [compound 20, 1-(3-methylphenyl)-4-[4-(morpholin-4-yl)phenyl]-3-(propan-2-yl)-1H-pyrazolo[3,4-b]pyridine-6-carboxylic acid] | 199.98% | 522 nM | 450.9% | 371 nM | – | – | – | –
Cc1nn(-c2cccc(C(F)(F)F)c2)c2nc(C(=O)O)cc(-c3ccc(N4CCOCC4)cc3)c12 [compound 22, 3-methyl-4-[4-(morpholin-4-yl)phenyl]-1-[3-(trifluoromethyl)phenyl]-1H-pyrazolo[3,4-b]pyridine-6-carboxylic acid] | 131.28% | 1010 nM | 310.95% | 995 nM | – | – | – | –
Cc1nn(-c2ccccc2)c2nc(C(=O)O)cc(-c3ccc(N4CCOCC4)cc3Cl)c12 [compound 26, 4-[2-chloro-4-(morpholin-4-yl)phenyl]-3-methyl-1-phenyl-1H-pyrazolo[3,4-b]pyridine-6-carboxylic acid] | 83.24% | 1270 nM | 258.4% | 1090 nM | – | – | – | –
Cc1nn(-c2cccc(N3CCOCC3)c2)c2nc(C(=O)O)cc(-c3ccc(N4CCOCC4)cc3)c12 [compound 32, 3-methyl-1-[3-(morpholin-4-yl)phenyl]-4-[4-(morpholin-4-yl)phenyl]-1H-pyrazolo[3,4-b]pyridine-6-carboxylic acid] | 176.7% | 638 nM | 399.6% | 1390 nM | – | – | – | –
Cc1nn(-c2cccc(N(C)C)c2)c2nc(C(=O)O)cc(-c3ccc(N4CCOCC4)cc3)c12 [compound 36, 1-[3-(dimethylamino)phenyl]-3-methyl-4-[4-(morpholin-4-yl)phenyl]-1H-pyrazolo[3,4-b]pyridine-6-carboxylic acid] | 118.9% | 2000 nM | 364.5% | 3340 nM | – | – | – | –
CC(C)c1nn(-c2ccnc(Cl)c2)c2nc(C(=O)O)cc(-c3ccc(N4CCOCC4)cc3)c12 [compound 41, 1-(2-chloropyridin-4-yl)-4-[4-(morpholin-4-yl)phenyl]-3-(propan-2-yl)-1H-pyrazolo[3,4-b]pyridine-6-carboxylic acid] | 110.52% | 957 nM | 301.2% | 527 nM | – | – | – | –
CC(C)c1nn(-c2ccc(OC(F)(F)F)cc2)c2nc(C(=O)O)cc(-c3ccc(N4CCOCC4)cc3)c12 [compound 43, 4-[4-(morpholin-4-yl)phenyl]-3-(propan-2-yl)-1-[4-(trifluoromethoxy)phenyl]-1H-pyrazolo[3,4-b]pyridine-6-carboxylic acid] | 187.4% | 408 nM | 360.8% | 371 nM | – | – | – | –
CC(C)(C)OC(=O)N1CC(c2nn(-c3ccccc3)c3nc(C(=O)O)cc(-c4ccc(N5CCOCC5)cc4)c23)C1 [compound 47, 3-[1-(tert-butoxycarbonyl)azetidin-3-yl]-4-[4-(morpholin-4-yl)phenyl]-1-phenyl-1H-pyrazolo[3,4-b]pyridine-6-carboxylic acid] | 183.2% | 608 nM | 390.5% | 567 nM | – | – | – | –
CC(C)c1nn(C2CCCCC2)c2nc(C(=O)O)cc(-c3ccc(N4CCOCC4)cc3)c12 [compound 54, 1-cyclohexyl-4-[4-(morpholin-4-yl)phenyl]-3-(propan-2-yl)-1H-pyrazolo[3,4-b]pyridine-6-carboxylic acid] | 167.9% | 763 nM | 392.6% | 376 nM | – | – | – | –
Cc1nn(-c2ccccc2)c2nc(C(=O)O)cc(-c3ccc(N4CCN(C(C)(C)C)CC4)cc3)c12 [compound 60, 4-[4-(4-tert-butylpiperazin-1-yl)phenyl]-3-methyl-1-phenyl-1H-pyrazolo[3,4-b]pyridine-6-carboxylic acid] | 14.9% | > 10000 nM | 143.1% | > 10000 nM | – | – | – | –
COc1ccc(-n2nc(C)c3c(-c4ccc(N5CCOCC5)cc4)cc(C(=O)O)nc32)cn1 [compound 61, 1-(6-methoxypyridin-3-yl)-3-methyl-4-[4-(morpholin-4-yl)phenyl]-1H-pyrazolo[3,4-b]pyridine-6-carboxylic acid] | 96.05% | 3340 nM | 253.6% | 2350 nM | – | – | – | –
CC(C)c1nn(C2CCCCC2)c2nc(C(=O)O)cc(-c3cnc(N(C)C)nc3)c12 [compound 62, 1-cyclohexyl-4-[2-(dimethylamino)pyrimidin-5-yl]-3-(propan-2-yl)-1H-pyrazolo[3,4-b]pyridine-6-carboxylic acid] | 159.65% | 2630 nM | 349.9% | 1690 nM | – | – | – | –
CC(C)(O)c1nn(-c2ccccc2)c2nc(C(=O)O)cc(-c3ccc(N4CCOCC4)cc3)c12 [compound 63, 3-(2-hydroxypropan-2-yl)-4-[4-(morpholin-4-yl)phenyl]-1-phenyl-1H-pyrazolo[3,4-b]pyridine-6-carboxylic acid] | 108.18% | 3340 nM | 294.35% | 3340 nM | – | – | – | –
NC(=O)c1nn(-c2ccccc2)c2nc(C(=O)O)cc(-c3ccc(N4CCOCC4)cc3)c12 [compound 64, 3-carbamoyl-4-[4-(morpholin-4-yl)phenyl]-1-phenyl-1H-pyrazolo[3,4-b]pyridine-6-carboxylic acid] | 3.754% | > 10000 nM | 113.3% | > 10000 nM | – | – | – | –
Cc1nn(C2CCCCC2)c2nc(C(=O)O)cc(-c3cnc(N4CCOCC4)nc3)c12 [compound 65, 1-cyclohexyl-3-methyl-4-[2-(morpholin-4-yl)pyrimidin-5-yl]-1H-pyrazolo[3,4-b]pyridine-6-carboxylic acid] | 103.02% | 3340 nM | 258.2% | 2310 nM | – | – | – | –
